{"source": "patent US10106559B2", "about": "“Substituted tetrahydrocarbazole and carbazole carboxamide compounds” (BRISTOL-MYERS SQUIBB COMPANY, priority 2013, dated 2018)", "key": {"[1]": {"target": "human recombinant Btk (Homo sapiens (Human), UniProt Q06187)", "sequence (Q06187 whole entry)": "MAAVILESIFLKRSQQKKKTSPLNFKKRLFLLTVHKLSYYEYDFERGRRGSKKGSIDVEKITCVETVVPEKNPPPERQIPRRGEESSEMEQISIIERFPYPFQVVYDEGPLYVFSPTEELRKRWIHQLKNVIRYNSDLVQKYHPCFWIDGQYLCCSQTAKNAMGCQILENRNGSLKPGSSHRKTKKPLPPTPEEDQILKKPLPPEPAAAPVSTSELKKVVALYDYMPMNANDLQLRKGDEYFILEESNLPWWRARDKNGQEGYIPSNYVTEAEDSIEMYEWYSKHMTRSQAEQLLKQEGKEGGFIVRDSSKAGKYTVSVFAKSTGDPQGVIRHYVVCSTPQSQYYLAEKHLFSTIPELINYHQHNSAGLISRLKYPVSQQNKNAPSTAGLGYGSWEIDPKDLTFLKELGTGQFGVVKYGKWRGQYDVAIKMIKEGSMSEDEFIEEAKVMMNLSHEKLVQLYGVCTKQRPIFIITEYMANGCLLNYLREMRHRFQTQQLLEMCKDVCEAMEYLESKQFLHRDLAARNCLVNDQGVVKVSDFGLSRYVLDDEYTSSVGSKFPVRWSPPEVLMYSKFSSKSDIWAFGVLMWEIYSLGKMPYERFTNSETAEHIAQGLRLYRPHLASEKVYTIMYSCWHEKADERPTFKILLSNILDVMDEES", "assay": "Human Recombinant Btk Enzyme Assay", "type": "biochemical"}, "[2]": {"target": "Jak2 tyrosine kinase (Homo sapiens (Human), UniProt O60674)", "sequence (O60674 whole entry)": "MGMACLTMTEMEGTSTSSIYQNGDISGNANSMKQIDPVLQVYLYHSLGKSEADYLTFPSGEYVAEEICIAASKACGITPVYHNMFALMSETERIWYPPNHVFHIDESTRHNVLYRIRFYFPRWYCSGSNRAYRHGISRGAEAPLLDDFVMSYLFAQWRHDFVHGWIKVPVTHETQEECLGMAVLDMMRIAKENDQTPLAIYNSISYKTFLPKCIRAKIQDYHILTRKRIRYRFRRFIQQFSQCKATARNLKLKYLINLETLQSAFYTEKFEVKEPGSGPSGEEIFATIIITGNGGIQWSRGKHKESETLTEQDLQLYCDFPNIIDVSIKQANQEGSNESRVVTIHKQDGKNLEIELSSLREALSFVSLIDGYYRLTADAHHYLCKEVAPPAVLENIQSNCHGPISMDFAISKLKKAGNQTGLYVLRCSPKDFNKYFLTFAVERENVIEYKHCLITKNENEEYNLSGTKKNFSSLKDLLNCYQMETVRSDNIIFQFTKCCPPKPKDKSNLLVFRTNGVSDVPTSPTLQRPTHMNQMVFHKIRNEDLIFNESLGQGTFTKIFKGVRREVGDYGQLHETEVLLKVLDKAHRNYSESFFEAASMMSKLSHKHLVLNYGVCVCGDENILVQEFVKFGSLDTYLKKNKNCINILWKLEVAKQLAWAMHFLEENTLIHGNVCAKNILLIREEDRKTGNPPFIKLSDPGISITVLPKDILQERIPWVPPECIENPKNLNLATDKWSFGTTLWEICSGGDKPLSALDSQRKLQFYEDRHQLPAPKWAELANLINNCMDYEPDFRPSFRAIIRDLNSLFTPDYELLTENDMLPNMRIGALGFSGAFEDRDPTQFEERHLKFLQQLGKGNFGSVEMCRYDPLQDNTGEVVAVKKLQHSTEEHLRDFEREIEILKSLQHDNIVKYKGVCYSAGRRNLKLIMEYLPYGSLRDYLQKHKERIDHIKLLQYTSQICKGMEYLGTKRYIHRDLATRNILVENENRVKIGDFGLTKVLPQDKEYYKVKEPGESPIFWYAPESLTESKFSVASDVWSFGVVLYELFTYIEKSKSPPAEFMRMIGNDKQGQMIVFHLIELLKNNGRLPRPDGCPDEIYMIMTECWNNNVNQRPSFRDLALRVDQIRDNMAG", "assay": "Jak2 Tyrosine Kinase Assay", "type": "biochemical", "settings": "for Ratio of Jak2/Btk IC50 values: selectivity: Jak2 IC50 divided by Btk IC50"}, "[3]": {"test_system": "CD69 expression on B cells in human whole blood", "assay": "Whole Blood Assay of BCR-Stimulated CD69 Expression on B Cells", "type": "cell-based", "settings": "B-cell"}}, "data": [{"smiles": "Cc1c(-c2c(F)cc(C(N)=O)c3[nH]c4cc(C(C)(C)O)ccc4c23)cccc1-n1c(=O)[nH]c2c(Cl)cccc2c1=O", "note": "(single isomer, unassigned) [Example 54]", "values": [{"measurement": "IC50", "setting": "[1]", "value": 0.35, "unit": "nM"}, {"measurement": "IC50", "setting": "[2]", "value": 1200, "unit": "nM"}, {"measurement": "Ratio of Jak2/Btk IC50 values", "setting": "[2]", "value": 3400}]}, {"smiles": "Cc1c(-c2c(F)cc(C(N)=O)c3[nH]c4cc(C(C)(C)O)ccc4c23)cccc1-n1c(=O)[nH]c2c(F)cc(F)cc2c1=O", "note": "[Example 49]", "values": [{"measurement": "IC50", "setting": "[1]", "value": 0.77, "unit": "nM"}, {"measurement": "IC50", "setting": "[2]", "value": "> 2000", "unit": "nM"}, {"measurement": "Ratio of Jak2/Btk IC50 values", "setting": "[2]", "value": ">2600"}, {"measurement": "IC50", "setting": "[3]", "value": 17, "unit": "nM"}]}, {"smiles": "Cc1c(-c2c(F)cc(C(N)=O)c3[nH]c4cc(C(C)(C)O)ccc4c23)cccc1-n1c(=O)[nH]c2c(Cl)cccc2c1=O", "note": "(single isomer, unassigned) [Example 53]", "values": [{"measurement": "IC50", "setting": "[1]", "value": 1.1, "unit": "nM"}, {"measurement": "IC50", "setting": "[2]", "value": 2200, "unit": "nM"}, {"measurement": "Ratio of Jak2/Btk IC50 values", "setting": "[2]", "value": 2000}]}, {"smiles": "Cc1cc(C(N)=O)c2[nH]c3cc(C(C)(C)O)ccc3c2c1-c1cccc(-n2c(=O)cc3c(Cl)cccn3c2=O)c1C", "note": "[Example 71]", "values": [{"measurement": "IC50", "setting": "[1]", "value": 0.41, "unit": "nM"}, {"measurement": "IC50", "setting": "[2]", "value": 800, "unit": "nM"}]}, {"smiles": "Cc1c(-c2c(C#N)cc(C(N)=O)c3[nH]c4cc(C(C)(C)O)ccc4c23)cccc1-n1c(=O)cc2c(Cl)cccn2c1=O", "note": "(single isomer, unassigned) [Example 72]", "values": [{"measurement": "IC50", "setting": "[1]", "value": 0.49, "unit": "nM"}, {"measurement": "IC50", "setting": "[2]", "value": 770, "unit": "nM"}, {"measurement": "Ratio of Jak2/Btk IC50 values", "setting": "[2]", "value": 1600}, {"measurement": "IC50", "setting": "[3]", "value": 200, "unit": "nM"}]}, {"smiles": "Cc1c(-c2c(F)cc(C(N)=O)c3[nH]c4cc(C(C)(C)O)ccc4c23)cccc1-n1c(=O)[nH]c2cc(F)ccc2c1=O", "note": "(single isomer, unassigned) [Example 51]", "values": [{"measurement": "IC50", "setting": "[1]", "value": 0.3, "unit": "nM"}, {"measurement": "IC50", "setting": "[2]", "value": "> 2000", "unit": "nM"}, {"measurement": "Ratio of Jak2/Btk IC50 values", "setting": "[2]", "value": ">6700"}, {"measurement": "IC50", "setting": "[3]", "value": 190, "unit": "nM"}]}, {"smiles": "Cc1c(-c2c(F)cc(C(N)=O)c3[nH]c4cc(C(C)(C)O)ccc4c23)cccc1-n1c(=O)[nH]c2c(F)cc(F)cc2c1=O", "note": "(single isomer, unassigned) [Example 50]", "values": [{"measurement": "IC50", "setting": "[1]", "value": 0.32, "unit": "nM"}, {"measurement": "IC50", "setting": "[2]", "value": 1200, "unit": "nM"}, {"measurement": "Ratio of Jak2/Btk IC50 values", "setting": "[2]", "value": 3800}]}, {"smiles": "Cc1c(-c2c(Cl)cc(C(N)=O)c3[nH]c4cc(C(C)(C)O)ccc4c23)cccc1-n1c(=O)[nH]c2c(F)cc(F)cc2c1=O", "note": "(single isomer, unassigned) [Example 48]", "values": [{"measurement": "IC50", "setting": "[1]", "value": 0.33, "unit": "nM"}, {"measurement": "IC50", "setting": "[2]", "value": 1100, "unit": "nM"}, {"measurement": "Ratio of Jak2/Btk IC50 values", "setting": "[2]", "value": 3300}, {"measurement": "IC50", "setting": "[3]", "value": 25, "unit": "nM"}]}, {"smiles": "Cc1c(-c2c(Cl)cc(C(N)=O)c3[nH]c4c(c23)CC[C@H](C(C)(C)O)C4)cccc1-n1c(=O)[nH]c2c(F)cc(F)cc2c1=O", "note": "(single isomer, unassigned) [Example 57]", "values": [{"measurement": "Ratio of Jak2/Btk IC50 values", "setting": "[2]", "value": 1100}, {"measurement": "IC50", "setting": "[3]", "value": 54, "unit": "nM"}]}, {"smiles": "Cc1c(-c2c(F)cc(C(N)=O)c3[nH]c4c(c23)CC[C@H](C(C)(C)O)C4)cccc1-n1c(=O)cc2c(F)cccn2c1=O", "note": "(single isomer, unassigned) [Example 68]", "values": [{"measurement": "Ratio of Jak2/Btk IC50 values", "setting": "[2]", "value": 630}, {"measurement": "IC50", "setting": "[3]", "value": 75, "unit": "nM"}]}, {"smiles": "Cc1cc(C(N)=O)c2[nH]c3cc(C(C)(C)O)ccc3c2c1-c1cccc(-n2c(=O)[nH]c3c(F)cccc3c2=O)c1C", "note": "(single isomer, unassigned) [Example 66]", "values": [{"measurement": "IC50", "setting": "[1]", "value": 0.34, "unit": "nM"}, {"measurement": "IC50", "setting": "[3]", "value": 89, "unit": "nM"}]}, {"smiles": "COc1cccn2c(=O)n(-c3cccc(-c4c(Cl)cc(C(N)=O)c5[nH]c6cc(C(C)(C)O)ccc6c45)c3C)c(=O)cc12", "note": "[Example 37, 3-Chloro-7-(2-hydroxypropan-2-yl)-4-(3-(5-methoxy-1,3-dioxo-1H-pyrido[1,2-c]pyrimidin-2(3H)-yl)-2-methylphenyl)-9H-carbazole-1-carboxamide]", "values": [{"measurement": "Ratio of Jak2/Btk IC50 values", "setting": "[2]", "value": 690}, {"measurement": "IC50", "setting": "[3]", "value": 200, "unit": "nM"}]}]}
